Assay results as given in PubChem BioAssay AID2060612 (Molecular Pharmacology Branch, DTP, NCI, 2025).
Several values for one entry are separate records, joined by “and”; a condition that tells them apart may be missing. Equal values may be shown once.

Test system: 565232-114-T-J1-PDC complex spheroid viability
Test: Anticancer human tumor 565232-114-T-J1-PDC patient-derived bladder carcinoma cell line growth inhibition [CLK]
Conditions: for viability, T/C: stronger effect = lower value; active means viability on the fitted dose curve at most 10% of control; inactive means the rest
Outline: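 Patient-derived tumor cells grown as complex spheroids with HUVEC endothelial cells and mesenchymal stem cells, treated with drug combinations. Concentrations descend in half-log steps from near clinical Cmax, or from 10 microM if Cmax unknown.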
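Further: spheroids exposed to compounds for 7 days before readout.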
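Wherever viability, T/C is given: 100% = DMSO vehicle wells with luminescence normalized to vehicle control.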

CC1COCCN1c1cc(C2(S(C)(=N)=O)CC2)nc(-c2ccnc3[nH]ccc23)n1 (stereo unspecified) + CN1CCN(c2cc(C(=O)Nc3cc4cc(-c5cnn(C)c5)ccc4cn3)ccn2)CC1
inactive: viability, T/C (second compound 0.0316 µM, first compound 0.0316 µM) 89.7% | viability, T/C (second compound 0.0316 µM, first compound 0.1 µM) 93.5% | viability, T/C (second compound 0.0316 µM, first compound 0.316 µM) 98.5% | viability, T/C (second compound 0.0316 µM, first compound 1 µM) 79.7% | viability, T/C (second compound 0.0316 µM, first compound 3.16 µM) 101% | viability, T/C (second compound 0.0316 µM, first compound 10 µM) 50.7% | viability, T/C (second compound 0.1 µM, first compound 0.0316 µM) 95.7% | viability, T/C (second compound 0.1 µM, first compound 0.1 µM) 91.2% | viability, T/C (second compound 0.1 µM, first compound 0.316 µM) 80.7% | viability, T/C (second compound 0.1 µM, first compound 1 µM) 82.6% | viability, T/C (second compound 0.1 µM, first compound 3.16 µM) 98.8% | viability, T/C (second compound 0.1 µM, first compound 10 µM) 26.1% | viability, T/C (second compound 0.316 µM, first compound 0.0316 µM) 16.3% | viability, T/C (second compound 0.316 µM, first compound 0.1 µM) 18.7% | viability, T/C (second compound 0.316 µM, first compound 0.316 µM) 14.9%
< 0.0316 µM: IC50 (curve of first compound, second compound 0.316 µM) | IC50 (curve of first compound, second compound 1 µM) | IC50 (curve of first compound, second compound 3.16 µM) | IC50 (curve of first compound, second compound 10 µM)
6.51 µM: IC50 (curve of first compound, second compound 0.1 µM)
> 10 µM: IC50 (curve of first compound, second compound 0.0316 µM)
active: viability, T/C (second compound 0.316 µM, first compound 1 µM) 9.37% | viability, T/C (second compound 0.316 µM, first compound 3.16 µM) 3.94% | viability, T/C (second compound 0.316 µM, first compound 10 µM) 3.31% | viability, T/C (second compound 1 µM, first compound 0.0316 µM) 0.17% | viability, T/C (second compound 1 µM, first compound 0.1 µM) 0.5% | viability, T/C (second compound 1 µM, first compound 0.316 µM) 0.18% | viability, T/C (second compound 1 µM, first compound 1 µM) 0.19% | viability, T/C (second compound 1 µM, first compound 3.16 µM) 1.38% | viability, T/C (second compound 1 µM, first compound 10 µM) 1.91% | viability, T/C (second compound 3.16 µM, first compound 0.0316 µM) 0.25% | viability, T/C (second compound 3.16 µM, first compound 0.1 µM) 0.22% | viability, T/C (second compound 3.16 µM, first compound 0.316 µM) 3.08% | viability, T/C (second compound 3.16 µM, first compound 1 µM) 0.81% | viability, T/C (second compound 3.16 µM, first compound 3.16 µM) 0.72% | viability, T/C (second compound 3.16 µM, first compound 10 µM) 2.22% | viability, T/C (second compound 10 µM, first compound 0.0316 µM) 1.75% | viability, T/C (second compound 10 µM, first compound 0.1 µM) 2.46% | viability, T/C (second compound 10 µM, first compound 0.316 µM) 1.22% | viability, T/C (second compound 10 µM, first compound 1 µM) 0.21% | viability, T/C (second compound 10 µM, first compound 3.16 µM) 0.21% | viability, T/C (second compound 10 µM, first compound 10 µM) 0.53%

CCN1CCN(Cc2ccc(Nc3ncc(F)c(-c4cc(F)c5nc(C)n(C(C)C)c5c4)n3)nc2)CC1
inactive: viability, T/C (compound 0.00316 µM) 90.3% and 109% | viability, T/C (compound 0.01 µM) 84.6% and 93.8% | viability, T/C (compound 0.0316 µM) 99.3% and 92.6% | viability, T/C (compound 0.1 µM) 85.6% and 91.6% | viability, T/C (compound 0.316 µM) 103% and 81.7% | viability, T/C (compound 1 µM) 120% and 115%
> 1 µM: IC50 (curve of compound)

Nc1ccccc1NC(=O)c1ccc(CNC(=O)OCc2cccnc2)cc1
active: viability, T/C (compound 10 µM) 2.78% and 0.64%
5.9 µM and 4.16 µM: IC50 (curve of compound)
inactive: viability, T/C (compound 0.0316 µM) 103% and 80.6% | viability, T/C (compound 0.1 µM) 94.5% and 89.7% | viability, T/C (compound 0.316 µM) 110% and 94.7% | viability, T/C (compound 1 µM) 106% and 113% | viability, T/C (compound 3.16 µM) 117% and 65.5%
